Source: US6001808A, “Method of treating herpes virus infections with spermostatic gramicidin” (Metatron, Inc., priority 1997, dated 1999)
≈ marks a conversion by molar mass, not a printed value. Where two headings read alike, the source gives them in different places.

Experiments:
[1] = tested on: HSV-1; test: HSV antigen ELISA, viral yield in WI-38 fibroblasts at 24 hours; type: cell-based, herpes simplex virus type 1 (HSV-1)
Description: (§1) The effect of gramicidin on the replication of herpes simplex viruses (HSV) type 1 and 2 has been examined and compared to the effect of acyclovir--the nucleoside analog used in the prior art for the therapy of herpes virus infections. Human WI-38 fibroblasts were inoculated with either type of HSV in the presence of serial dilutions of gramicidin (10-0.001 mcg/ml) and reduction in viral yield was measured at 24 hours by ELISA. […] The average 50% inhibitory dose (IC50) of gramicidin against 3 HSV-1 and 4 HSV-2 solates was equal to 0.3 mcg/ml and was similar to the efficacy of the anti-HSV agent acyclovir (ACV). The IC50 of a single dose of gramicidin required to protect WI-38 from cytolytic effect of HSV was 10 mcg/ml at day 5 postinfection. Importantly, gramicidin suppressed the replication of ACV-resistant thymidine kinase and polymerase HSV mutants at doses effective against ACV-sensitive strains.
(§2) Human embryonic lung fibroblasts WI-38 (CCL-75, ATCC, Rockville, Md.) were grown in RPMI medium 1640 with 10% FBS, L-glutamine, and penicillin/streptomycin (GIBCO, Grand Island, N.Y.) at 37° C. with 5% CO2 air atmosphere. Herpes viruses that were tested for susceptibility to gramicidin are own in Table 1.
(§3) One day prior to the assay WI-38 monolayers were trypsinized with 0.25% trypsin/EDTA (Sigma) and plated in 96-well microculture plates at seeding concentration 10^5 cells per well. The next day triplicate wells of WI-38 monolayers were exposed to serial 10-fold dilutions (range 10 mcg/ml-1 ng/ml) of gramicidin or ACV. Positive control wells and drug-exposed wells containing 180 mcl of medium received 20 mcl ahquots of HSV-1 or HSV-2 preparation at 5,000 TCID50 per well and were incubated further for 24 hours. Thereupon, the supernatants from infected WI-38 fibroblasts were collected and levels of HSV antigen were examined by ELISA (Premier™ HSV, Meridian Diagnostics Inc., Cincinnati, Ohio) according to the manufacturer's instructions. The primary antibody supplied with this ELISA kit recognizes HSV antigens of both virus types. The amount of HSV antigen, corresponding to levels in the inoculum, was subtracted as a blank value from experimental values reached upon virus propagation in host WI-38 cells. IC50 doses were estimated from dose-response curves plotted as a function of log concentrations of drugs.

[2] = tested on: WI-38 cells; test: Viability of WI-38 cells by MTS assay
Description: (§4) The effect of test compounds on cell viability was measured by two colorimetric assays as follows. WI-38 cells were grown in the presence or absence of ten-fold dilutions of gramicidin or ACV for two days. The cells were then exposed to MTS/phenazine methosulfate as described above. The conditions for the second, lactate dehydrogenase (LDH) assay, were similar to the MTS test except that a different cell viability parameter was measured. This assay quantitatively measures the stable cytosolic enzyme, LDH, that is released upon cell lysis in much the same way as ^51 Cr is released in radioactive assays. The results were evaluated using an enzymatic assay which measures the conversion of INT tetrazolium salt into red formazan product (CytoTox^96, Promega, Madison, Wis.). A standard 96-well plate reader was set to record wavelength absorbance at 490 nm. The residual LDH activity present in incubation medium was subtracted as a blank value. The amount of LDH released from drug-exposed cells was compared to untreated and detergent-lysed controls according to the formula provided by the manufacturer.

[3] = tested on: VR-734 strain of HSV-2; test: Protection of WI-38 fibroblasts against cytolytic action of HSV, MTS assay day 5; type: cell-based, herpes simplex virus type 2 (HSV-2); conditions: day 5 postinfection, single dose
Description: Inoculated WI-38 cells were grown in the presence of ten-fold dilutions of gramicidin or ACV for five days until all untreated control cells were dead as a result of lytic HSV infection. The culture wells were then exposed for 4 hours to MTS tetrasolium salt and phenazine methosulfate preparation (Cell Titer^96, Promega, Madison, Wis.) and the optical density of formazan dye was measured in a plate reader at 450 nm with reference filter at 620 nm. The obtained values were then compared to both the absorbance values of dead cells and optical density of uninfected viable cells grown in the same plate. The percent of surviving WI-38 cells in drug-protected cultures was determined from dose-response curves as a function of log concentrations of test drugs.

[4] = tested on: HSV-2; test: HSV antigen ELISA, viral yield in WI-38 fibroblasts at 24 hours; type: cell-based, herpes simplex virus type 2 (HSV-2)
Description: as §1, §2, §3

[5] = tested on: sperm penetration into lamb cervical mucus; test: Cervical mucus penetration assay; type: cell-based, human; conditions: for motility of spermatozoa found in drug-pretreated mucus: at the time of observation, N9 even after 1 hour of incubation
Description: Glass capillary tubes (1 mm×100 mm) were filled with freshly collected lamb cervical mucus and placed vertically into solutions with test compounds as described earlier. After 30 minutes, incubation to allow the diffusion of drugs into mucus, the mucus-containing tubes were dipped vertically into cuvettes with the semen. After 15 minutes, the sperm that moved upwards from the bottom of the capillary tube was evaluated under microscope for traveled distance and the percent of motile sperm.

[6] = tested on: sperm motility; test: 2-minute sperm immobilization assay (sperm motility by CASA); type: cell-based, human; conditions: for times higher dose required to achieve the effect of gramicidin: sperm motility, compounds alone
Description: The tests were conducted on unprocessed semen samples. […] Ejaculate samples from 3 normospermic volunteers were collected after 2-4 days of abstinence and allowed to liquefy for 20 minutes at 37° C. The sperm count was within the range of 60-240×10^6 cells/ml and the percentage of motile cells was over 50%. Serial dilutions of gramicidin, nonoxynol-9, EDTA or combinations thereof were mixed with fresh semen and sperm count, motility and morphology were assessed using computer-assisted semen analysis (CASA). Each 50 mcl sample of semen was mixed in a glass tube with predetermined concentration of test compounds, vortexed for 10 seconds, and left at room temperature for 2 minutes. Thereupon, a small 10 mcl portion of the sample was placed on a glass slide and motility of the sperm was evaluated automatically.

[7] = tested on: WI-38 cells; test: LDH release from drug-exposed WI-38 cells; conditions: 2 days of treatment, highest 10 mcg dose
Description: as §4

[8] = tested on: sperm viability; test: Tetrazolium dye reduction (XTT) assay on sperm; type: cell-based, human; conditions: highest 100 mcg/ml concentration
Description: The spermatozoa from fertile donors are capable of nitroblue tetrazolium reduction in a same way as the fibroblasts in Example 1. Briefly, sperm were suspended in a 96-well plate in the presence of serial ten-fold dilutions of test compounds and each 180 mcl well received 20 mcl of XTT solution at final concentration 1 mg/ml of XTT (Sigma) with 1% w/v of PMS (Aldrich, Milwaukee, Wis.). Drug untreated spermatozoa served as positive viability references.
(§5) These two methods, XTT and LDH, were used simultaneously on the same semen samples to determine the toxic effect of gramicidin. Both quantitative tests, measuring two independent indicators of sperm viability, indicate that gramicidin is a potent nontoxic agent with antifertility potential.

[9] = tested on: HSV type 1 and 2; test: HSV antigen ELISA, summary over HSV-1 and HSV-2 isolates; type: cell-based, herpes simplex viruses (HSV) type 1 and 2
[10] = tested on: HIV; conditions: 10 ng/ml; cited from earlier work
[11] = tested on: sperm viability; test: Lactate dehydrogenase (LDH) release assay on sperm; type: cell-based, human; conditions: high doses, serial dilutions 100 mcg-1 ng per ml
From the text: The disruption of the sperm membrane by N9-like detergents such as Triton X-100 or by gramicidin S leads to release of intracellular LDH isoenzymes or membrane-associated LDH-X, and an increase in LDH activity can be measured by assaying the supernatant of sperm suspension. The increase in LDH activity can be thus used as an indicator of drug toxicity since cytosolic LDH is released upon cell lysis in the same way as 51Cr is released in radioactive assays. The assay setting is similar to XTT assay and released LDH is quantitated with commercial enzymatic assay (CytoTox96, Promega, Madison, Wis.). An ordinary plate reader was used to record visible wavelength absorbance at 490 nm. The residual LDH activity usually present in seminal plasma or in incubation medium was subtracted as blank values and the % of toxicity was determined as directed by manufacturer's instruction. This assay is very sensitive and results are obtained within 30 minutes.
as §5

[12] = 0% EDTA, 2 minutes, unprocessed semen
[13] = 0.1% EDTA, 2 minutes, unprocessed semen

## Nc1nc2c(ncn2COCCO)c(=O)[nH]1 [Acyclovir, [2-hydroxyethoxymethyl]guanine]
[1]; Human alphaherpesvirus 1, WI-38, read-out: IC50 by HSV antigen ELISA, HSV type 1 strain DM2.1, TK-
  IC50: 77.3 µg/mL (≈ 343 µM)
[1]; Human alphaherpesvirus 1, WI-38, read-out: IC50 by HSV antigen ELISA, HSV type 1 strain KOS, ACV-sensitive
  IC50: 0.4 µg/mL (≈ 1.78 µM)
[1]; Human alphaherpesvirus 1, WI-38, read-out: IC50 by HSV antigen ELISA, HSV type 1 strain PAAr, Polymerase-
  IC50: 52.4 µg/mL (≈ 233 µM)
[2]
  toxicity to host WI-38 cells: not toxic
[3]; Human alphaherpesvirus 2, WI-38, 120 h, read-out: IC50 for protection of WI-38 from cytolytic effect of HSV
  IC50: 0.2 µg/mL (≈ 0.888 µM)
[4]; Human alphaherpesvirus 2, WI-38, 24 h, read-out: IC50 on HSV replication by antigen ELISA, VR-734 strain of HSV-2, WI-38 cells, day 1 postinfection
  IC50: 0.2 µg/mL (≈ 0.888 µM)
[4]; Human alphaherpesvirus 2, WI-38, read-out: IC50 by HSV antigen ELISA, HSV type 2 strain 186, ACV-sensitive
  IC50: 0.1 µg/mL (≈ 0.444 µM)
[4]; Human alphaherpesvirus 2, WI-38, read-out: IC50 by HSV antigen ELISA, HSV type 2 strain 8708, TK altered
  IC50: 9.9 µg/mL (≈ 44 µM)
[4]; Human alphaherpesvirus 2, WI-38, read-out: IC50 by HSV antigen ELISA, HSV type 2 strain Kost, TK altered
  IC50: 15.8 µg/mL (≈ 70.2 µM)
[4]; Human alphaherpesvirus 2, WI-38, read-out: IC50 by HSV antigen ELISA, HSV type 2 strain VR-734, ACV-sensitive
  IC50: 0.2 µg/mL (≈ 0.888 µM)

## CCCCCCCCCc1ccc(OCCOCCOCCOCCOCCOCCOCCOCCOCCO)cc1 [Nonoxynol-9, nonoxynol-9]
[5]; 0% EDTA, no IC100 at the highest tested dose
  IC100 in cervical mucus penetration assay: > 1000 µg/mL
[5]; 0.1% EDTA
  IC100 in cervical mucus penetration assay: 100 µg/mL
[5]; Homo sapiens, Sperm, 0% EDTA, footnote: value represents IC50
  IC50: 900 µg/mL (≈ 1460 µM)
[5]
  motility of spermatozoa found in drug-pretreated mucus: retained motility
[6]
  enhancement in activity upon combination with EDTA: less than a two-fold enhancement
  times higher dose required to achieve the effect of gramicidin: At least 50 times
[6]; [12]
  IC100 on sperm motility: 200 µg/mL
[6]; [13]
  IC100 on sperm motility: 125 µg/mL
[6]; at 4 mcg/ml, 2 minutes
  effect on sperm motility: no effect

## gramicidin D
[7]
  excess LDH released, relative to baseline of untreated controls: ≤ 15%
[1]; HSV type 1 strain DM2.1, TK-
  IC50 by HSV antigen ELISA: 0.3 µg/mL
[1]; HSV type 1 strain KOS, ACV-sensitive
  IC50 by HSV antigen ELISA: 0.2 µg/mL
[1]; HSV type 1 strain PAAr, Polymerase-
  IC50 by HSV antigen ELISA: 0.4 µg/mL
[8]
  effect on mitochondrial hydrogenases of sperm (XTT): no effect
[2]; MTS, day 2, highest tested 10 mcg/ml dose
  effect on viability (metabolic activity) of WI-38 cells: no significant effect
[2]; at concentrations that exceeded IC50 by at least two orders of magnitude
  toxicity to host WI-38 cells: not toxic
[3]
  IC50 for protection of WI-38 from cytolytic effect of HSV: 10 µg/mL
[9]; average against 3 HSV-1 and 4 HSV-2 isolates
  average 50% inhibitory dose (IC50): 0.3 µg/mL
[9]; both HSV type 1 and 2, 24 hours, range over isolates
  IC50, reduction in viral yield by ELISA: 0.1 to 0.4 µg/mL
[4]; HSV type 2 strain 186, ACV-sensitive
  IC50 by HSV antigen ELISA: 0.1 µg/mL
[4]; HSV type 2 strain 8708, TK altered
  IC50 by HSV antigen ELISA: 0.3 µg/mL
[4]; HSV type 2 strain Kost, TK altered
  IC50 by HSV antigen ELISA: 0.2 µg/mL
[4]; HSV type 2 strain VR-734, ACV-sensitive
  IC50 by HSV antigen ELISA: 0.3 µg/mL
[4]; VR-734 strain of HSV-2, WI-38 cells, day 1 postinfection
  IC50 on HSV replication by antigen ELISA: 0.3 µg/mL
[5]; 0% EDTA
  IC100 in cervical mucus penetration assay: 3 µg/mL
[5]; 0.1% EDTA
  IC100 in cervical mucus penetration assay: 0.001 µg/mL
[5]
  motility of spermatozoa found in drug-pretreated mucus: immotile
[5]; with 0.1% of EDTA
  concentration that completely prevented penetration of sperm into mucus: 1 ng/mi
[6]; [12]
  IC100 on sperm motility: 4 µg/mL
[6]; [13]
  IC100 on sperm motility: 0.01 µg/mL
[6]; after washing sperm and resuspending in Earle's balanced salt solution
  reversibility of effect on sperm motility: irreversible effect
[6]; sperm immobilization, without EDTA
  times more potent than N9: 50 times
[6]; with 0.1% of EDTA
  IC100 on sperm motility: 0.01 µg/mL
[10]
  activity against lab strains and clinical isolates of HIV: active
[11]
  effect on LDH release from sperm: negligible

## O=C(O)CN(CCN(CC(=O)O)CC(=O)O)CC(=O)O [EDTA, ethylenediaminetetraacetic acid]
[5]; 0% EDTA
  IC100 in cervical mucus penetration assay: 1,200 mcg/ml
[6]; [12]
  IC100 on sperm motility: 5,000 mcg/ml
[6]
  times higher dose required to achieve the effect of gramicidin: ≥ 1250 times
